Laboratory results from patent US4310521A, “Aspirin-isopropylantipyrine” (Toho Pharmaceutical Co., Ltd., priority 1979, dated 1982).
Entries after “also recorded” stand apart in the source; their conditions may differ. Read-outs that look alike come from different tables or passages of the source.

Key:
[1] = tested on: mice (acetic acid writhings); assay: Inhibition of acetic acid-induced writhing in mice (analgetic activity); type: in vivo; conditions: for No. of Writhings: 30 minutes before acetic acid i.p., control 32.2 ± 3.7; for Inhibition (%): writhing, based on the control group
Method: The number of writhings that occurred when mice were administered an acetic acid solution intraperitoneally were counted, and the rate of inhibition based on the control group was calculated. The test compounds were administered to the mice 30 minutes before the acetic acid solution was administered.

[2] = tested on: mouse tail (pain threshold, heat); assay: Prolongation time of pain threshold of mouse tail, D'Amour-Smith Method (analgetic activity); type: in vivo; conditions: mice, s.c., 200 mg/kg AIA vs 200 mg/kg aspirin, FIG. 1
Method: Further, the prolongation time of pain threshold of mouse tail was determined in accordance with the D'Amour-Smith Method (J. Pharmacol. Exp. Ther., 72, 74 (1941)). After the subcutaneous administration of the test compounds to mice, the tails of mice were exposed to heat and the prolongation time of pain threshold was determined.

[3] = tested on: stomach, glandular portion; assay: Gastric ulcerogenic activity, pylorus-ligated rats; type: in vivo; conditions: for Length of Stomach Lesion (cm): pylorus-ligated rats, oral, 100 mg/kg, 7 hours
Method: Immediately after ligation of the pylorus of fasted rats, the test compounds were administered orally. The stomachs were removed 7 hours later, and the lengths of the lesions in the glandular portion were measured.

[4] = tested on: stomach, glandular portion; assay: Gastric ulcerogenic activity, adjuvant-administered rats; type: in vivo; conditions: oral, 200 mg/kg per day, 21 days, control 0.05 ± 0.048, *P < 0.05
Method: On the other hand, after administering an adjuvant, the rats were orally administered […] of the test compounds per day for 21 days. On the 21st day the stomachs were removed, and the lengths of the lesions in the glandular portion were measured.

carrageenin edema = assay: Carrageenin edema of hind paw (anti-inflammatory activity); type: in vivo; conditions: rats, s.c., 50 and 100 mg/kg, FIG. 2, in words
Method: Rats were subcutaneously administered the test compounds, and 30 minutes later a carrageenin solution was administered subcutaneously to the foot pad of the rats. The volume of the hind paw was measured at prescribed intervals after the administration of the carrageenin, and the rate of increase in the volume of the paw was calculated and designated as the rate of swelling (%).

adjuvant arthritis = assay: Adjuvant arthritis (anti-inflammatory activity); type: in vivo; conditions: rats, 200 mg/kg per day, 21 days, FIG. 3, in words
Method: On the other hand, an adjuvant was administered subcutaneously to only the foot pad of the left hind paw, and 200 mg/kg per day of the test compounds were administered daily for 21 days. The rate of increase in the volume of the both hind paws were measured daily and designated as the rate of swelling (%).

rats (E. coli pyrogen) = assay: Antipyretic activity, E. coli suspension as pyrogen; type: in vivo; conditions: s.c., 100 mg/kg, 2 hours after pyrogen
Method: Rats received a sterilized E. coli suspension (1 platinum loop/2 ml saline, 0.5 ml/100 g, i.v.) as a pyrogen, and 2 hours later the test compounds were injected subcutaneously. The temperature was taken at hourly intervals before and after injection of the test compounds.

[5] = tested on: excised intestinal tract of rats; assay: Inhibition of induced contraction of excised intestinal tract; conditions: 100 μg/ml
Acute toxicity (LD 50) = type: in vivo; conditions: mouse, in vivo, male ddy mice
Method: (§1) The acute toxicity of AIA was tested using male mice (ddy, body weight 18-25 g), and the dose at which 50% of the animal population were killed (LD 50) was determined.

male mice = assay: Acute toxicity (LD 50); type: in vivo; conditions: male ddy mice, in words
Method: as §1

Solubility = type: physicochemical
[6] = Hygroscopicity and stability; type: physicochemical; conditions: in words, no test described; listed as formula (I)
[7] = background statement on aspirin; cited from earlier work
[8] = ip, intraperitoneal, read-out: LD 50 (g/kg), Intraperitoneal administration
[9] = sc, subcutaneous, read-out: LD 50 (g/kg), Subcutaneous administration
[10] = oral, read-out: LD 50 (g/kg), Oral administration

| SMILES | No. of Writhings ([1]; 50 mg/kg) | Inhibition (%) ([1]; 50 mg/kg) | No. of Writhings ([1]; 100 mg/kg) | Inhibition (%) ([1]; 100 mg/kg) | Length of Stomach Lesion (cm) [3] | Length of Stomach Lesion (cm) [4] | LD50 (Acute toxicity (LD 50); [8]) | LD50 (Acute toxicity (LD 50); [9]) | LD50 (Acute toxicity (LD 50); [10]) | further results |
| --- | --- | --- | --- | --- | --- | --- | --- | --- | --- | --- |
| CC(=O)Oc1ccccc1C(=O)NCc1c(C(C)C)c(=O)n(-c2ccccc2)n1C [AIA, N-3'a-propylphenazonyl-2-acetoxybenzamide] | 22.1 ± 3.3 | 31.4% | 18.3 ± 1.7 | 43.2% | 0.11 ± 0.09 cm | 0.04 ± 0.031 cm | 3.67 ± 0.07 g/kg | > 5 g/kg | > 5 g/kg | Analgetic activity (writhing) compared with aspirin ([1]; in words): analgetic activity comparable to that of aspirin; Analgetic activity (prolongation of pain threshold) compared with aspirin [2]: stronger analgetic activity than the group administered 200 mg/kg of aspirin; Injury to the stomach (Tables 2A and 2B) ([3]; rats, in words, Tables 2A and 2B): little or no injury is caused to the stomach; Inhibition of carrageenin edema formation (carrageenin edema): has the activity of inhibiting carrageenin edema formation; Inhibitory effect on adjuvant arthritis compared with aspirin (adjuvant arthritis): inhibitory effect on adjuvant arthritis comparable to that of aspirin; Antipyretic activity (rats (E. coli pyrogen)): demonstrated antipyretic activity; Inhibition of contraction induced by acetylcholine ([5]; acetylcholine): inhibit the contraction; Inhibition of contraction induced by barium chloride ([5]; barium chloride): inhibit the contraction; Inhibition of contraction induced by histamine ([5]; histamine): inhibit the contraction; Acute toxicity compared with aspirin (male mice): extremely low as compared with that of aspirin; Solubility in acetone (Solubility; acetone): dissolves readily; Solubility in chloroform (Solubility; chloroform): dissolves fairly well; Solubility in ethanol (Solubility; ethanol): dissolves readily; Solubility in methanol (Solubility; methanol): dissolves readily; Solubility in water (Solubility; water): practically insoluble; Hygroscopicity [6]: free of hygroscopicity; also recorded: not hygroscopic; Stability [6]: stable; also recorded: good stability |
| CC(=O)Oc1ccccc1C(=O)O [Aspirin, acetylsalicylic acid] | 17.2 ± 4.0 | 46.6% | 15.3 ± 2.4 | 52.5% | 4.13 ± 1.24 cm | 3.29 ± 1.37 cm | 0.76 ± 0.09 g/kg | 1.02 ± 0.11 g/kg | 11.6 ± 0.07 g/kg | Hygroscopicity [7]: hygroscopic |
